From paper PMC8804135 (Neurotherapeutics, 2021)
Numbered stars: 1 amine (or outer) side, 2 acyl side, 3 side chain; on linkers, the order of the positions; unused ones are H or OH. Bridge positions count the residues as written; N and C are the ends. Square brackets hold non-standard residues; d marks the D form. Peptide text beside a SMILES is read from it. dAbu(3S-yl) = C[C@@H]([C@@H](N[*:1])C(=O)[*:2])[*:3]; pGlu = O=C1CC[C@@H](C(=O)O)N1

Columns and labels:
[1] = mouse, in vivo, 1 mg/kg
Description: Pharmacokinetics studies were performed at Pharmidex UK. The animal experimental protocols were approved by the UK Government Home Office and carried out in accordance with the guidelines of the Animals (Scientific Procedures) Act (1986). Ethical approval was subject to UK Home Office license number P651A96A4.
One mg HPLC-purified and HPLC-quantified M89b was dissolved in 1 ml Milli-Q followed by thorough vortexing and warming the solution for 10 min to 60 °C. From this solution, a dilution in 0.1% 2-hydroxypropyl-β-cyclodextrin was made. Male CD1 mice (weighing 26.5 to 32.9 g, n = 3 per time point) were used for the pharmacokinetic studies. Mice were given 1 mg/kg M89b either subcutaneously (s.c.) or intravenously (i.v.). Samples were collected after 2, 5, 10, 15, 30, 60, 120, and 240 min. Post-dosing, the 4 h mice were individually housed in metabolic cages for cold collection of urine in pre-weighed tubes which were re-weighed prior to storage. At each scheduled sampling time point, terminal blood was collected from each animal by cardiac puncture in heparin-containing tubes (20 IU heparin/mL of blood) kept on wet ice. The blood was centrifuged (5 min at 21, 100 g at 4 °C), and the resulting plasma was transferred to the corresponding labeled polypropylene tubes prior to storage. […]

GAL3R = biological target: T1, GAL3R (Homo sapiens, UniProt O60755); test: SRE luciferase reporter assay, GAL3R-transfected HEK293 Gqi cells; conditions: transiently transfected HEK293 Gqi cells; up to 10 µM, 5 h
T1 sequence (O60755 1-368): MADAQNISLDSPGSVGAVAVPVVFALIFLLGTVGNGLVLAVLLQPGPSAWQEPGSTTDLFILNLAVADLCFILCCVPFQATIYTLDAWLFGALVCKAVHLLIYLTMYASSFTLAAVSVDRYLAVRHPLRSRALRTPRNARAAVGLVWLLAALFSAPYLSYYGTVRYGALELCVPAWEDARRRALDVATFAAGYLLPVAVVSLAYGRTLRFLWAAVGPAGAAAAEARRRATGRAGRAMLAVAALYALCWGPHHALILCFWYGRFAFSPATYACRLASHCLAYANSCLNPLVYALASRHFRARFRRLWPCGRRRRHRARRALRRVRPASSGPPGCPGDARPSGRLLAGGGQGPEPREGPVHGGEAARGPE

[2] = system: non-fasted male Wistar rats; test: Food intake and body weight after intranasal application of peptides; type: in vivo, rat
Description: For intranasal delivery, 1 mg of M89b was first dissolved in 566 µl 2,2,2-trifluorethanol, 566 µl 10% (2-hydroxypropyl)-ß-cyclodextrin (HBC), and 1 µl acetic acid and incubated at 60 °C for 20 min. Another 566 µl of 10% HBC were added. The peptide was then dried in a speed-vac, and the dried pellet was dissolved in 1132 µl water by vortexing and incubation at 60 °C. M871 and GALP were purchased from GL Biochem. M871 was dissolved in saline containing 10% HBC. GALP was dissolved in saline containing 5% α-cyclodextrin.
In vivo experiments involving intranasal treatment of rats and measurement of feeding behavior were performed at the Institute for Translational Medicine, University of Pécs, Pécs, Hungary. Experiments were approved by the National Ethical Council for Animal Research (permit number, BA 02/2000–11/2018). They were also in accord with the directives of the European Communities Council on the protection of animals used for scientific purposes (86/609/EEC, Directive 2010/63/EU of the European Parliament and of the Council).
Spontaneous food intake was measured in non-fasted male Wistar rats (3 months old) for 24 h following intranasal application of peptide solutions by an automated FeedScale System (Columbus, OH). Each group of animals (6–9 rats/group) was habituated to the individual chambers of the FeedScale System until daily food intake and changes in the body weight of the animals had normalized. This habituation, which lasted for a minimum of 2 weeks, allowed adaptation to the environment, to the powdered chow and to the feeder. This powdered form of chow prevented food hoarding. A special digital scale under the cages provided precise automated measurement and continuous recording of the amount of consumed food. During the measurement of the cumulative 24 h food intake, data were collected every 30 min.
Intranasal applications were performed at 06:00 PM at the onset of the active nighttime period of rats. First, the body weight of animals was recorded, and then they were intraperitoneally anesthetized with ketamine (52 mg/kg) and xylazine (9 mg/kg). For the intranasal application of peptides, rats were placed on their backs, and 25–30 µl of peptide solution was injected gently per nostril (total volume of 50–60 μl per rat depending on the administered peptides) using a 10-μl pipette. The following solutions were applied: M89b (25 nmol in 60 µl saline containing 10% HBC); GALP (17.5 nmol in 50 µl saline containing 5% α-cyclodextrin); M871 (219 nmol in 60 µl 10% HBC); and M89b + M871 (25 nmol M89b + 219 nmol M871 in 60 µl 10% HBC). […] At 24 h post-treatment, the body weight of the animals was measured.
Statistical analysis was performed with SPSS 11.0. […] Body weight data were analyzed by applying a one-way ANOVA with Tukey’s post hoc test. […]

Detection in urine samples [1]: not detected
Detection in brain tissue ([1]; sc): not detected
Stimulation of GAL3R, luciferase reporter (GAL3R): inability to stimulate
Structure (SMILES): CC(C)C[C@H](NC(=O)[C@H](CC(C)C)NC(=O)[C@H](Cc1ccc(O)cc1)NC(=O)CNC(=O)[C@H](C)NC(=O)[C@H](C)NC(=O)[C@H](CC(N)=O)NC(=O)[C@H](CC(C)C)NC(=O)[C@H](CC(N)=O)NC(=O)[C@H](Cc1c[nH]c2ccccc12)NC(=O)[C@@H]1CCC(=O)N1)C(=O)N[C@@H](C)C(=O)N[C@H]1C(=O)N[C@@H](Cc2c[nH]cn2)C(=O)N[C@@H](C)C(=O)N[C@H](C(=O)NCC(=O)O)CS[C@H]1C [Variant M89b, G1pE-T3N-S6A-G12A-methyllanthionine[13–16]-galanin-(1–17)] ([pGlu]WNLNAAGYLLA[dAbu(3S-yl)]HACG-OH; thioether 13-16; C-terminus assumed)
Loss of initial body weight at 24 h post-treatment ([2]; intranasal 25 nmol in 10% HBC, p = 0.009 vs. vehicle): 2.6%
Reduction of 24 h food intake compared to vehicle ([2]; intranasal 25 nmol in 60 µl saline with 10% HBC, p = 0.006 vs vehicle): 23%
